Key:
KRas^G12D = target: T1, KRas^G12D (Homo sapiens, UniProt P01116, G12D); experiment: KRas binding assay (TR-FRET displacement of Cy5 labelled tracer)
T1 construct: […]; biotin (biotinylated); purchased Accelegan Inc
Protocol: (§3) The ability of a compound to bind to KRas was measured using a TR-FRET displacement assay. […] After a 60-minute incubation at room temperature, the reaction was measured using a BMG LABTECH CLARIO star Plus via TR-FRET. […] The POC values were fit to a 4-parameter IC50 equation and the IC50 value reported.

[1] = system: NCI-H460 (Q61H) cells, phospho-ERK; experiment: Inhibition of KRas-mediated phosphorylation of ERK (phospho-ERK/GAPDH antibody detection, LI-COR); format: cell-based; conditions: Homo sapiens, 3 hours
In short: (§1)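 Cells seeded 20,000/well, attached 12-14 h, then compound (0.5% DMSO) for 3 h. Formaldehyde-fixed, methanol-permeabilized cells stained for phospho-ERK (Thr202/Tyr204) and GAPDH; infrared imaging. Ratio expressed as % of DMSO control; IC50 from 4-parameter fit.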

[2] = system: AsPC-1 (G12D) cells, phospho-ERK; experiment: as above; format: cell-based; conditions: Homo sapiens, ASPC1, 3 hours
In short: as §1

[3] = system: NCI-H727 (G12V) cells, phospho-ERK; experiment: as above; format: cell-based; conditions: Homo sapiens, 3 hours
In short: as §1

ASPC1 cells, pERK = experiment: Inhibition of KRas phosphorylation of ERK (Cisbio HTRF Advanced pERK assay); format: cell-based; conditions: Homo sapiens, ASPC1, 3 h, AsPC-1 cells, read-out: Inhibition (HTRF IC50 nM) of KRas-mediated Phosphorylation of ERK, AsPC-1
In short: (§2)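 pERK measured by HTRF in lysates from cells treated 3 h with compound, 10 uM top, 3-fold steps, 10 doses, 0.8% DMSO final. Cells (6,000/well, RPMI 10% FBS) had been plated overnight at 37 °C; 0.2 uM trametinib defined minimum signal; antibody detection 2 h at room temperature.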

MKN1 cells, pERK = experiment: as above; format: cell-based; conditions: Homo sapiens, MKN-1, 3 h, read-out: Inhibition (HTRF IC50 nM) of KRas-mediated Phosphorylation of ERK, MKN1
In short: as §2

H460 cells, pERK = experiment: as above; format: cell-based; conditions: Homo sapiens, NCI-H460, 3 hrs, read-out: Inhibition (HTRF IC50 nM) of KRas-mediated Phosphorylation of ERK, H460
In short: as §2

A549 cells, pERK = experiment: as above; format: cell-based; conditions: Homo sapiens, 3 hrs, read-out: Inhibition (HTRF IC50 nM) of KRas-mediated Phosphorylation of ERK, A549
In short: as §2

H727 cells, pERK = experiment: as above; format: cell-based; conditions: Homo sapiens, NCI-H727, 3 h, read-out: Inhibition (HTRF IC50 nM) of KRas-mediated Phosphorylation of ERK, H727
In short: as §2

HCT116 cells, pERK = experiment: as above; format: cell-based; conditions: Homo sapiens, HCT-116, 3 hrs, read-out: Inhibition (HTRF IC50 nM) of KRas-mediated Phosphorylation of ERK, HCT116
In short: as §2

PSN1 cells, pERK = experiment: as above; format: cell-based; conditions: Homo sapiens, PSN1, 3 h, read-out: Inhibition (HTRF IC50 nM) of KRas-mediated Phosphorylation of ERK, PSN1
In short: as §2

KRas^G12R = target: T2, KRas^G12R (Homo sapiens, UniProt P01116, G12R); experiment: KRas binding assay (TR-FRET displacement of Cy5 labelled tracer)
T2 construct: […]; biotin (biotinylated); purchased Accelegan Inc
Protocol: as §3

KRas^G12V = target: T3, KRas^G12V (Homo sapiens, UniProt P01116, G12V); experiment: as above
T3 construct: […]; biotin (biotinylated); purchased Accelegan Inc
Protocol: as §3

H358 cells, pERK = experiment: Inhibition of KRas phosphorylation of ERK (Cisbio HTRF Advanced pERK assay); format: cell-based; conditions: Homo sapiens, NCI-H358, 3 hrs, read-out: Inhibition (HTRF IC50 nM) of KRas-mediated Phosphorylation of ERK, H358
In short: as §2

T2 sequence (P01116 1-169 isoform P01116-2 G12R): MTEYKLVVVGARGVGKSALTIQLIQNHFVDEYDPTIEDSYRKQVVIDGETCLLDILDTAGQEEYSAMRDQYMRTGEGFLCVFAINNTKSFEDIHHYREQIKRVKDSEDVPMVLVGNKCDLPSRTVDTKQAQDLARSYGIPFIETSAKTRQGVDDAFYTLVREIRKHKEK
T1 sequence (P01116 1-169 isoform P01116-2 G12D): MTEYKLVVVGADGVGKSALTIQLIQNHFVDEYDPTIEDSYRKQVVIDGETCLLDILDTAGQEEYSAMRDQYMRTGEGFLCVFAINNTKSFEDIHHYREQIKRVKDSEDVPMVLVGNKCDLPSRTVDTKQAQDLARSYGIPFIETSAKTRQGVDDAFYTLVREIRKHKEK
T3 sequence (P01116 1-169 isoform P01116-2 G12V): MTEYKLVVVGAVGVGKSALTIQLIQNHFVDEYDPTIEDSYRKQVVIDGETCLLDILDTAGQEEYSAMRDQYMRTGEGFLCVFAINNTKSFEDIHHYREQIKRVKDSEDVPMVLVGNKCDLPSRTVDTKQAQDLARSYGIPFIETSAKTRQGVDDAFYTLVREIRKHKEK

Structure (SMILES)	IC50 (KRas^G12D) [nM]	IC50 [1] [nM]	IC50 [2] [nM]	IC50 [3] [nM]	IC50 (ASPC1 cells, pERK) [nM]	IC50 (MKN1 cells, pERK) [nM]	IC50 (H460 cells, pERK) [nM]	IC50 (A549 cells, pERK) [nM]	IC50 (H727 cells, pERK) [nM]	IC50 (HCT116 cells, pERK) [nM]	IC50 (PSN1 cells, pERK) [nM]	IC50 (KRas^G12R) [nM]	IC50 (KRas^G12V) [nM]	IC50 (H358 cells, pERK) [nM]
CCc1c(F)ccc2cc(O)cc(N3CCc4c(nc(OC[C@@]56CCCN5C[C@H](F)C6)nc4N4CC5C(=O)NC(=O)C5C4)C3)c12 (stereo partly drawn) [Example 24, 5-(7-(8-ethyl-7-fluoro-3-hydroxynaphthalen-1-yl)-2-(((2R,7aS)-2-fluorohexahydro-1H-pyrrolizin-7a-yl)methoxy)-5,6,7,8-tetrahydropyrido[3,4-d]pyrimidin-4-yl)tetrahydropyrrolo[3,4-c]pyrrole-1,3(2H,3aH)-dione]	≤ 2	65	25	134	10	6	59	17	35	148	2950	≤ 2	≤ 2	–
CCc1c(F)ccc2cc(O)cc(N3CCc4c(nc(OC[C@@]56CCCN5C[C@H](F)C6)nc4N4CCCn5nc(C(=O)NC(C)C)cc5C4)C3)c12 [Example 188, 5-(7-(8-ethyl-7-fluoro-3-hydroxynaphthalen-1-yl)-2-(((2R,7aS)-2-fluorotetrahydro-1H-pyrrolizin-7a(5H)-yl)methoxy)-5,6,7,8-tetrahydropyrido[3,4-d]pyrimidin-4-yl)-N-isopropyl-5,6,7,8-tetrahydro-4H-pyrazolo[1,5-a][1,4]diazepine-2-carboxamide]	≤ 2	–	–	–	2	7	49	–	4	–	2880	≤ 2	≤ 2	3
CCc1c(F)ccc2cc(O)cc(N3CCc4c(nc(OC[C@@]56CCCN5C[C@H](F)C6)nc4N4CCCn5nc(C(=O)N(C)C)c(C)c5C4)C3)c12 [Example 189, 5-(7-(8-ethyl-7-fluoro-3-hydroxynaphthalen-1-yl)-2-(((2R,7aS)-2-fluorotetrahydro-1H-pyrrolizin-7a(5H)-yl)methoxy)-5,6,7,8-tetrahydropyrido[3,4-d]pyrimidin-4-yl)-N,N,3-trimethyl-5,6,7,8-tetrahydro-4H-pyrazolo[1,5-a][1,4]diazepine-2-carboxamide]	≤ 2	–	–	–	2	4	39	–	3	–	2680	≤ 2	52	1
CCc1c(F)ccc2cc(O)cc(N3CCc4c(nc(OC[C@@]56CCCN5C[C@H](F)C6)nc4N4CCCn5nc(C(=O)N(C)C)c(F)c5C4)C3)c12 [Example 190, 5-(7-(8-ethyl-7-fluoro-3-hydroxynaphthalen-1-yl)-2-(((2R,7aS)-2-fluorotetrahydro-1H-pyrrolizin-7a(5H)-yl)methoxy)-5,6,7,8-tetrahydropyrido[3,4-d]pyrimidin-4-yl)-3-fluoro-N,N-dimethyl-5,6,7,8-tetrahydro-4H-pyrazolo[1,5-a][1,4]diazepine-2-carboxamide]	≤ 2	–	–	–	2	6	49	–	6	–	5450	≤ 2	≤ 2	3
CCc1c(F)ccc2cc(O)cc(N3CCc4c(nc(OC[C@@]56CCCN5C[C@H](F)C6)nc4N4CCCn5nc(C(=O)N6CCCC6)cc5C4)C3)c12 [Example 191, (5-(7-(8-ethyl-7-fluoro-3-hydroxynaphthalen-1-yl)-2-(((2R,7aS)-2-fluorotetrahydro-1H-pyrrolizin-7a(5H)-yl)methoxy)-5,6,7,8-tetrahydropyrido[3,4-d]pyrimidin-4-yl)-5,6,7,8-tetrahydro-4H-pyrazolo[1,5-a][1,4]diazepin-2-yl)(pyrrolidin-1-yl)methanone]	≤ 2	–	–	–	3	10	33	–	3	–	2960	≤ 2	52	3
CCc1c(F)ccc2cc(O)cc(N3CCc4c(nc(OC[C@@]56CCCN5C[C@H](F)C6)nc4N4CCCn5nc(C(=O)N6CCOCC6)cc5C4)C3)c12 [Example 193, (5-(7-(8-ethyl-7-fluoro-3-hydroxynaphthalen-1-yl)-2-(((2R,7aS)-2-fluorohexahydro-1H-pyrrolizin-7a-yl)methoxy)-5,6,7,8-tetrahydropyrido[3,4-d]pyrimidin-4-yl)-5,6,7,8-tetrahydro-4H-pyrazolo[1,5-a][1,4]diazepin-2-yl)(morpholino)methanone]	≤ 2	–	–	–	3	4	38	–	5	74	2100	≤ 2	≤ 2	2
CCc1c(F)ccc2cc(O)cc(N3CCc4c(nc(OC[C@@]56CCCN5C[C@H](F)C6)nc4N4CCCc5nn(C(=O)N(C)C)cc5C4)C3)c12 [Example 194, 5-(7-(8-ethyl-7-fluoro-3-hydroxynaphthalen-1-yl)-2-(((2R,7aS)-2-fluorohexahydro-1H-pyrrolizin-7a-yl)methoxy)-5,6,7,8-tetrahydropyrido[3,4-d]pyrimidin-4-yl)-N,N-dimethyl-5,6,7,8-tetrahydropyrazolo[4,3-c]azepine-2(4H)-carboxamide]	≤ 2	–	–	–	71	100	426	–	115	–	≥ 10000	≤ 2	≤ 2	63
O=S1(=O)NCC2(CCCN(c3nc(OC[C@@]45CCCN4C[C@H](F)C5)nc4c3CCN(c3cc(O)cc5ccc(F)c(Br)c35)C4)C2)N1 (stereo partly drawn) [Example 225, 7-(7-(8-bromo-7-fluoro-3-hydroxynaphthalen-1-yl)-2-(((2R,7aS)-2-fluorohexahydro-1H-pyrrolizin-7a-yl)methoxy)-5,6,7,8-tetrahydropyrido[3,4-d]pyrimidin-4-yl)-2-thia-1,3,7-triazaspiro[4.5]decane 2,2-dioxide]	≤ 2	–	–	–	23	3	56	–	82	158	328	≤ 2	≤ 2	9
O=C1NC(=O)C2CN(c3nc(OC[C@@]45CCCN4C[C@H](F)C5)nc4c3CCN(c3cc(O)cc5ccc(F)c(Br)c35)C4)CC12 (stereo partly drawn) [Example 226, 5-(7-(8-bromo-7-fluoro-3-hydroxynaphthalen-1-yl)-2-(((2R,7aS)-2-fluorohexahydro-1H-pyrrolizin-7a-yl)methoxy)-5,6,7,8-tetrahydropyrido[3,4-d]pyrimidin-4-yl)tetrahydropyrrolo[3,4-c]pyrrole-1,3(2H,3aH)-dione]	≤ 2	–	–	–	45	7	169	–	43	–	2790	≤ 2	≤ 2	22
O=C1NC(=O)C2CN(c3nc(OC[C@@]45CCCN4C[C@H](F)C5)nc4c3CCN(c3cc(O)cc5ccc(F)c(Cl)c35)C4)CC12 (stereo partly drawn) [Example 232, 5-(7-(8-chloro-7-fluoro-3-hydroxynaphthalen-1-yl)-2-(((2R,7aS)-2-fluorohexahydro-1H-pyrrolizin-7a-yl)methoxy)-5,6,7,8-tetrahydropyrido[3,4-d]pyrimidin-4-yl)tetrahydropyrrolo[3,4-c]pyrrole-1,3(2H,3aH)-dione]	≤ 2	–	–	–	125	34	331	98	114	709	2770	≤ 2	≤ 2	–

Reference: patent publication US12421253B2 (Mirati Therapeutics, Inc., priority 2020, dated 2025)
